Key:
Format in all cases: in vivo
Echinochloa crusgalli = assay: Field efficacy on grass weed in soybean, post-emergence foliar application
Description: (§1) As described in the Herbicide Handbook of the Weed Science Society of America, Ninth Edition, 2007, p. 429, “synergism” [is] an interaction of two or more factors such that the effect when combined is greater than the predicted effect based on the response to each factor applied separately. In the Colby method, the expected (or predicted) response of a combination of herbicides is calculated by taking the product of the observed response for each individual component of the combination when applied alone divided by 100 and subtracting this value from the sum of the observed response for each component while applied alone. An unexpected enhancement in efficacy of the combination is then determined by comparing the observed response of the combination to the expected (or predicted) response as calculated from the observed response of each individual component alone. If the observed response of the combination is greater than the expected (or predicted) response, or stated conversely, if the difference between the observed and expected response is greater than zero, then the combination is said to be synergistic or unexpectedly effective. (Colby, S. R., Weeds, 1967(15), p. 20-22). The Colby method required only a single dose of each herbicide applied alone and the mixture of both doses.
(§2) Synergy Study: The following formula was used to calculate the expected activity of mixtures containing active ingredients, A and B:
(§3) • A=Observed efficacy of active ingredient (combination of Metamifop and Imidazolinone herbicides) A at the same concentration as used in the mixture. • B=observed efficacy of active ingredient B at the same concentration as used in the mixture. However, following formula was used to calculate the expected activity of mixtures containing three active ingredients, A, B and C:
(§4) • A=observed efficacy of active ingredient (combination of Metamifop and Imidazolinone herbicides) A at the same concentration as used in the mixture. • B=observed efficacy of active ingredient B at the same concentration as used in the mixture. • C=observed efficacy of active ingredient C at the same concentration as used in the mixture.
(§5) EFFICACY STUDY: The field experiments were carried out to test the synergy of the combination Metamifop, Imazethapyr, and Imazamox in India at various locations like in MP, Maharashtra, Karnataka, and Telangana on farmer's field against soybean weeds during Kharif season. The experiment comprising of 15 treatments including premixed binary and ternary combinations along with their stand-alone molecule using a randomized block design replicated thrice. All the treatments were applied as post-emergence foliar application when the weeds reached to two to four leaf stage. The spray was conducted with the help of Battery-operated Knapsack sprayer. The percentage efficacy was calculated after 14 and 21 days after application of herbicides.
(§6) The weeds present in the experimental fields were echinochloa conola, echinochloa crusgalli, brachiaria euriciformis, rottboellia cochinchinensis, cynodon dactylon, parthenium hyterophorus, digera arvensis, cynotis axillaris, acalypha indica, Commelina benghalensis, celosia argentia, cyperus spp.

[1] = tested on: Rottboellia cochinchinensis; assay: as above
Description: as §1, §2, §3, §4, §5, §6

Brachiaria eruciformis = assay: as above
Description: as §1, §2, §3, §4, §5, §6

[2] = tested on: hard to kill broad leaf weeds; assay: Field efficacy, summary on broad leaf weeds
Description: as §1, §5

Cyanotis axillaris = assay: Field efficacy on broad leaf weed in soybean, post-emergence foliar application
Description: as §1, §2, §3, §4, §5, §6

Parthenium hysterophorus = assay: as above
Description: as §1, §2, §3, §4, §5, §6

Commelina benghalensis = assay: as above
Description: as §1, §2, §3, §4, §5, §6

Soybean = assay: Phytotoxicity in Soybean, visual grading on 0-10 scale; conditions: soybean, in vivo
Description: as §5
Phytotoxic effect of herbicidal combination of Metamifop, Imazethapyr and Imazamox in soyabean: Table 5, 10 show the visual observations and grading on phytotoxicity which was recorded for leaf injury on tip/surface, Epinasty/Hyponasty, and wilting etc. on 0-10 scale (as below) at 1, 3, 7, 14 and 21 days after application of the present herbicidal composition.

[3] = 14 DAA, Imazethapyr 35 gm ai/ha
[4] = 14 DAA, Imazethapyr 40 gm ai/ha
[5] = 14 DAA, Imazethapyr 50 gm ai/ha
[6] = 14 DAA, Imazethapyr 75.375 gm ai/ha
[7] = 21 DAA, Imazethapyr 35 gm ai/ha
[8] = 21 DAA, Imazethapyr 40 gm ai/ha
[9] = 21 DAA, Imazethapyr 50 gm ai/ha
[10] = 21 DAA, Imazethapyr 75.375 gm ai/ha

## CCc1cnc(C2=NC(C)(C(C)C)C(=O)N2)c(C(=O)O)c1 (stereo not shown) [Imazethapyr]
Echinochloa crusgalli; [3]
  % Weed control burn down symptoms generation Observed: 15%
Echinochloa crusgalli; [4]
  % Weed control burn down symptoms generation Observed: 18%
Echinochloa crusgalli; [5]
  % Weed control burn down symptoms generation Observed: 18%
Echinochloa crusgalli; [6]
  % Weed control burn down symptoms generation Observed: 20%
Echinochloa crusgalli; [7]
  % Weed control burn down symptoms generation Observed: 8%
Echinochloa crusgalli; [8]
  % Weed control burn down symptoms generation Observed: 12%
Echinochloa crusgalli; [9]
  % Weed control burn down symptoms generation Observed: 16%
Echinochloa crusgalli; [10]
  % Weed control burn down symptoms generation Observed: 18%
[1]; [3]
  % Weed control burn down symptoms generation Observed: 0%
[1]; [4]
  % Weed control burn down symptoms generation Observed: 0%
[1]; [5]
  % Weed control burn down symptoms generation Observed: 25%
[1]; [6]
  % Weed control burn down symptoms generation Observed: 30%
[1]; [7]
  % Weed control burn down symptoms generation Observed: 0%
[1]; [8]
  % Weed control burn down symptoms generation Observed: 0%
[1]; [9]
  % Weed control burn down symptoms generation Observed: 0%
[1]; [10]
  % Weed control burn down symptoms generation Observed: 0%
Brachiaria eruciformis; [3]
  % Weed control burn down symptoms generation Observed: 8%
Brachiaria eruciformis; [4]
  % Weed control burn down symptoms generation Observed: 10%
Brachiaria eruciformis; [5]
  % Weed control burn down symptoms generation Observed: 20%
Brachiaria eruciformis; [6]
  % Weed control burn down symptoms generation Observed: 22%
Brachiaria eruciformis; [7]
  % Weed control burn down symptoms generation Observed: 0%
Brachiaria eruciformis; [8]
  % Weed control burn down symptoms generation Observed: 0%
Brachiaria eruciformis; [9]
  % Weed control burn down symptoms generation Observed: 0%
Brachiaria eruciformis; [10]
  % Weed control burn down symptoms generation Observed: 15%
[2]; at 14 days
  Control on targeted weeds, applied alone: no or very less control
[2]; at 21 days
  Control on targeted weeds, applied alone: no or very less control
Cyanotis axillaris; [3]
  % Weed control burn down symptoms generation Observed: 12%
Cyanotis axillaris; [4]
  % Weed control burn down symptoms generation Observed: 25%
Cyanotis axillaris; [5]
  % Weed control burn down symptoms generation Observed: 447%
Cyanotis axillaris; [6]
  % Weed control burn down symptoms generation Observed: 0%
Cyanotis axillaris; [7]
  % Weed control burn down symptoms generation Observed: 0%
Cyanotis axillaris; [8]
  % Weed control burn down symptoms generation Observed: 7%
Cyanotis axillaris; [9]
  % Weed control burn down symptoms generation Observed: 20%
Cyanotis axillaris; [10]
  % Weed control burn down symptoms generation Observed: 36%
Parthenium hysterophorus; [3]
  % Weed control burn down symptoms generation Observed: 0%
Parthenium hysterophorus; [4]
  % Weed control burn down symptoms generation Observed: 6%
Parthenium hysterophorus; [5]
  % Weed control burn down symptoms generation Observed: 11%
Parthenium hysterophorus; [6]
  % Weed control burn down symptoms generation Observed: 28%
Parthenium hysterophorus; [7]
  % Weed control burn down symptoms generation Observed: 0%
Parthenium hysterophorus; [8]
  % Weed control burn down symptoms generation Observed: 4%
Parthenium hysterophorus; [9]
  % Weed control burn down symptoms generation Observed: 6%
Parthenium hysterophorus; [10]
  % Weed control burn down symptoms generation Observed: 15%
Commelina benghalensis; [3]
  % Weed control burn down symptoms generation Observed: 6%
Commelina benghalensis; [4]
  % Weed control burn down symptoms generation Observed: 22%
Commelina benghalensis; [5]
  % Weed control burn down symptoms generation Observed: 35%
Commelina benghalensis; [6]
  % Weed control burn down symptoms generation Observed: 56%
Commelina benghalensis; [7]
  % Weed control burn down symptoms generation Observed: 0%
Commelina benghalensis; [8]
  % Weed control burn down symptoms generation Observed: 13%
Commelina benghalensis; [9]
  % Weed control burn down symptoms generation Observed: 20%
Commelina benghalensis; [10]
  % Weed control burn down symptoms generation Observed: 45%
Soybean; 1 days after application
  Phytotoxicity score: 0
Soybean; 3 days after application
  Phytotoxicity score: 0
Soybean; 7 days after application
  Phytotoxicity score: 0
Soybean; 14 days after application
  Phytotoxicity score: 0
Soybean; 21 days after application
  Phytotoxicity score: 0

— patent US20240099304A1, “SYNERGISTIC HERBICIDAL COMPOSITIONS OF METAMIFOP” (Parijat Industries (India) Private Limited, priority 2021, published 2024)
